{"source": "patent US20120077818A1", "about": "“COMPOSITIONS COMPRISING TRANSNORSERTRALINE AND SEROTONIN RECEPTOR 1A AGONISTS/ANTAGONISTS AND USES THEREOF” (Sunovion Pharmaceuticals Inc., priority 2009, published 2012)", "tested_on": "dorsal raphe 5-HT neurons", "experiment": "In vivo electrophysiological recordings of dorsal raphe (DR) 5-HT neurons", "set-up": "species or system rat", "procedure": "Male Sprague Dawley rats (Charles River, St. Constant, QC) weighing 250 to 300 g, were used for the experiments. They were housed individually and kept under standard laboratory conditions (12:12 hour light/dark cycle with free access to food and water). All animals were handled according to the guidelines of the Canadian Council on Animal Care (CCAC) and protocols in this study were approved by the local Animal Care Committee (Ottawa Health Research Institute, Ottawa, ON, Canada).\nRats were anaesthetized with chloral hydrate (400 mg/kg; i.p.) and placed into a stereotaxic frame. The extracellular recordings of 5-HT neurons in the dorsal raphe (“DR”) were carried out using single-barrelled glass micropipettes (R&D Scientific Glass, Spencerville, Md.) preloaded with a 2 M NaCl solution. Their impedance typically ranged between 4-7 MΩ.\nThe single-barrelled glass micropipettes were positioned using the following coordinates (in mm from lambda): AP, +1.0 to 1.2; L, 0±0.1; V, 5 to 7. The presumed 5-HT neurons were then identified using the following criteria: a slow (0.5-2.5 Hz) and regular firing rate and long-duration (2-5 ms) bi- or triphasic extracellular waveform (Aghajanian and Vandermaelen, 1982b). […] This occasional firing pattern of 5-HT neurons was analyzed by spike interval burst analysis following the criteria set by Hajos et al. The onset of a burst was defined as the occurrence of two spikes with an interspike interval shorter than 0.005 s.\nThe percent of baseline firing rate were measured 60 seconds after systemic administration of the triple reuptake inhibitor. Various parameters were determined to examine the electrophysiological effects of co-administration of a transnorsertraline with WAY-100635. These parameters included the number of single spikes, bursts, cells per track and the firing rate of 5-HT neurons.\nElectrophysiological data expressed as means±S.E.M of percent of baseline firing rate or as means±S.E.M of single spikes or bursts measured from the same neurons. Data were analyzed by using a one- or two-ways analysis of variance (ANOVA), with treatment, treatment and pre-treatment or treatment and brain region as main factors. Fisher's protected least significant difference test (Fisher's PLSD-test) was used to analyze the statistical significance between groups. The paired Student's t test was used in experiments comparing two groups. In each experiment, a level of p<0.05 was accepted as evidence for a statistically significant effect.", "key": {"[1]": {"settings": "rats pre-treated with WAY-100635"}}, "note": "“Also recorded” adds a separate entry of the source."}
{"smiles": "N[C@@H]1CC[C@@H](c2ccc(Cl)c(Cl)c2)c2ccccc21", "note": "[(1R,4S)-transnorsertraline, (1R,4S)-trans-4-(3,4-dichlorophenyl)-1,2-3,4-tetrahydro-1-naphthalenamine]", "values": [{"measurement": "number of bursts of 5-HT neurons (effect in words)", "setting": "[1]", "result": "significantly increased"}, {"measurement": "number of single spikes of 5-HT neurons (effect in words)", "setting": "[1]", "result": "significantly increased"}, {"measurement": "DR 5-HT firing rate (effect in words)", "setting": "rats pre-treated with WAY-100635, (1R,4S)-transnorsertraline 0.5-2 mg/kg iv", "result": "significant increase; also recorded: markedly increased"}]}
{"smiles": "COc1ccccc1N1CCN(CCN(C(=O)C2CCCCC2)c2ccccn2)CC1", "note": "[WAY-100635, reference compound]", "values": [{"measurement": "spontaneous firing rate of DR 5-HT neurons (effect in words)", "setting": "WAY-100635 alone, 100 μg/kg iv", "result": "did not alter"}, {"measurement": "spontaneous firing rate of DR 5-HT neurons", "setting": "WAY-100635 alone, 100 μg/kg iv, printed as 1.3±0.1 vs 1.4±0.1 (n=8), in Hz (unit assumed)", "result": "1.4±0.1"}]}
